Reference: paper PMC6148246, “HS-1371, a novel kinase inhibitor of RIP3-mediated necroptosis” (Experimental & Molecular Medicine, 2018)

Legend:
H2009 cells = H2009 cells ectopically expressing RIP3, TSZ-induced necroptosis; type: cell-based, human; conditions: H2009 with ectopic RIP3
Experimental: (§1) HEK293T, HT-29, H2009, L929, HeLa, and MEF cells were grown in Dulbecco’s Modified Eagle’s Medium (DMEM) supplemented with 10% fetal bovine serum (FBS). RAW264.7 cells were grown in Roswell Park Memorial Institute (RPMI) 1640 media supplemented with 10% FBS. To generate cell lines stably expressing the RIP3 construct, HeLa and H2009 cells were infected with pLX303-hRIP3 lentivirus.
(§2) Cells were pretreated with DAB or HS-1371 for 2 h and then treated with TSZ (6 h for immunoblotting, 24 h for cell death assay). Cell lysates were analyzed by immunoblotting (left bottom panel), and cell viability was analyzed by MTT assay (right panel). The results are presented as means ± SEM. *P < 0.05, **P < 0.01, ***P < 0.001. c, d HS-1371 had the same effect on mouse cells. L929 (mouse sarcoma, c) and MEF (mouse embryonic fibroblast, d) cells were pretreated with inhibitors and then necroptosis was induced by TNF. Cell lysates were analyzed by immunoblotting (upper panel), and cell viability was analyzed by MTT assay (bottom panel). The results are presented as means ± SEM. *P < 0.05, **P < 0.01, ***P < 0.001

RIP3 [1] = target: T1, RIP3 (Homo sapiens, UniProt Q9Y572); assay: Basal S227 auto-phosphorylation of RIP3 in HT-29 cells (immunoblot); type: cell-based; set-up: RIP3-expressing HT-29 cells; endogenous in cells; host or cells: HT-29; conditions: 10 μM, 9 h
Experimental: (§3) Cells were rinsed in cold phosphate-buffered saline (PBS) and lysed in M2 buffer containing 20 mM Tris at pH 7, 0.5% NP-40, 250 mM NaCl, 3 mM EDTA, 3 mM EGTA, 2 mM DTT, 0.5 mM PMSF, 20 mM β-glycerol phosphate, 1 mM sodium vanadate, and 1 μg/mL leupeptin. The cell extracts were subjected to western blot analysis. For immunoprecipitation, lysates were mixed and precipitated with antibody and protein A-agarose beads overnight or for 4 h at 4 °C. Bound proteins were removed by boiling in SDS and resolved by SDS-PAGE, and immunoblotting was visualized by enhanced chemiluminescence (ECL, Amersham).
RIP3 kinase activity is essential for TNF-induced necroptosis, and human S227 auto-phosphorylation sites of RIP3 are required for the interaction of RIP3 with its substrate MLKL[13],[14], which is indispensable for downstream necroptotic cell death signaling. To test the possible effects of the RIP3 inhibitors on necroptosis, HT-29 cells were treated with the kinase inhibitors, and RIP3 kinase activity was determined by examining its phosphorylation status.
(§4) Fig. 2 Novel inhibitors can block RIP3 S227 phosphorylation. a Western blotting showing various kinase inhibitor effects on RIP3 S227 auto-phosphorylation. HT-29 cells were treated with four tested kinase inhibitors (1308, 1336, 1338, and 1371, 10 μM) for 9 h. As a control, KK5101 (Trk alpha inhibitor) and HS829 (IKK beta inhibitor) were also treated at a concentration of 10 μM for 9 h. Prototypical necroptosis stimuli (TNF + zVAD + either cycloheximide or SMAC mimetic; hereafter referred to as TCZ or TSZ) were applied for 6 h. […] HT-29 cells were treated with 4 tested kinase inhibitors for 24 h, and cell viability was analyzed by MTT assay or phase-contrast microscopy. […] HT-29 cells were pretreated with necrostatin-1 (Nec-1, 40 μM), dabrafenib (DAB, 10 μM) or necrosulfonamide (NSA, 1 μM) for 2 h and then treated with TSZ for 6 h. […] HT-29 cells were pretreated with four tested kinase inhibitors for 2 h and then treated with TSZ for 6 h. Cell lysates were analyzed by immunoblotting. f HT-29 cells were pretreated with Nec-1 (40 μM), DAB (5 μM) or HS-1371 (5 μM) for 2 h and then treated with TSZ for 4 h. Cell lysates were immunoprecipitated with anti-RIP3 antibody. Immunoprecipitates and total lysates were analyzed by Western blotting

HT-29 cells = assay: TNF-induced apoptosis in HT-29 cells (TC or TS); type: cell-based, human; conditions: HT-29, 5 μM pretreated 2 h
Experimental: HT-29 cells expressing RIP3 shRNA, MLKL shRNA, or non-silencing control were analyzed by western blotting (upper panel), and these cells were treated with TSZ (6 h for immunoblotting, 24 h for cell death assay). Cell lysates were analyzed by immunoblotting (middle panel), and cell viability was analyzed by MTT assay (bottom panel). The results are presented as means ± SEM. *P < 0.05, **P < 0.01, ***P < 0.001. b HS-1371 protected cells not only from TNF-induced necroptosis but also from TRAIL-induced necroptosis. HT-29 cells were pretreated with indicated concentrations of HS-1371 and then treated with TRAIL + Smac + zVAD (6 h for immunoblotting, 24 h for cell death assay). Cell lysates were analyzed by immunoblotting, and cell viability was analyzed by MTT assay or phase-contrast microscopy. The results are presented as means ± SEM. *P < 0.05, **P < 0.01, ***P < 0.001. c, d HS-1371 had no effect on TNF-induced apoptosis. HT-29 cells were pretreated with HS-1371 (5 μM) for 2 h and then treated with TC or TS (TNF + either cycloheximide or SMAC mimetic, hereafter referred to as TC or TS, 6 h for immunoblotting, 24 h (TC) or 36 h (TS) for cell death assay). Cell lysates were analyzed by immunoblotting, and cell viability was analyzed by MTT assay (TC) or CellTiter-Glo Luminescent Cell Viability Assay Kit (TS). The results are presented as means ± SEM. *P < 0.05, **P < 0.01, ***P < 0.001

HeLa cells = HeLa cells ectopically expressing RIP3 (immunoblot, MTT); type: cell-based, human
Experimental: as §1, §2

RIP3 [2] = target: T1, RIP3; assay: TNF (TSZ)-induced RIP3 and MLKL phosphorylation in HT-29 cells (immunoblot); type: cell-based; set-up: RIP3-expressing HT-29 cells; endogenous in cells; host or cells: HT-29
Experimental: as §3, §4
TNFα Smac mimetic and the caspase inhibitor zVAD (hereafter referred to as TSZ) is a classical combination that is used to induce RIP3-mediated necroptotic cell death[10],[32]. We first verified that three established pharmacological inhibitors of necroptosis, necrostatin-1 (Nec-1), necrosulfonamide (NSA), and dabrafenib (DAB) could block TNF-induced necroptosis (Fig. 2d). Of these inhibitors, Nec-1 inhibits RIP1 kinase activity[33],[34], DAB inhibits RIP3 kinase activity, and NSA inhibits MLKL functions downstream of RIP3 phosphorylation. […] Next, we tested whether these four inhibitors would inhibit TNF-induced necroptosis signaling by blocking RIP3 kinase activity. […] The effect of HS-1371 on RIP3 kinase activity was compared with another RIP3 inhibitor, GSK’872[16].

T1 sequence (Q9Y572 whole entry): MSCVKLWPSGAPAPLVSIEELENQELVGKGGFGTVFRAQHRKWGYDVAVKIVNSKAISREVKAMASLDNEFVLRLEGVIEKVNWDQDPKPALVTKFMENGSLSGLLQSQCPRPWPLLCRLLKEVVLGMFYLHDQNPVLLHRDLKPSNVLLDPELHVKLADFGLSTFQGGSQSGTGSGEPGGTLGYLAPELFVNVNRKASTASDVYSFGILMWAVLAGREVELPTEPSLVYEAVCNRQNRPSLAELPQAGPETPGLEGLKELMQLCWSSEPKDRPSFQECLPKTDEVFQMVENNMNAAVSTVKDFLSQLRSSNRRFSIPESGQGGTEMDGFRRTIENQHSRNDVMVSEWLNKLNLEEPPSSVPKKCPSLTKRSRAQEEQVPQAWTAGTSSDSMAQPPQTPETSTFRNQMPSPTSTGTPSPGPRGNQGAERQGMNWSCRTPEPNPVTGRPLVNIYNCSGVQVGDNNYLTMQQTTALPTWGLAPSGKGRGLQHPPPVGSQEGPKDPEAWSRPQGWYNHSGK

Cc1ccc(Oc2ccnc3cc(-c4cnn(C5CCNCC5)c4)ccc23)cc1 [HS-1371, 7-(1-(Piperidin-4-yl)-1H-pyrazol-4-yl)-4-(p-tolyloxy)quinoline]
TSZ-induced necroptosis (H2009 cells): prevented
effect on S227 auto-phosphorylation of RIP3 at the basal level (RIP3 [1]): inhibitory effect
apoptosis induced by TNF plus CHX (HT-29 cells; TC 24 h, MTT): did not inhibit
apoptosis induced by TNF plus Smac mimetic (HT-29 cells; TS 36 h, CellTiter-Glo): did not inhibit
basal RIP3 phosphorylation (HeLa cells; HeLa with ectopic RIP3, 6 h, dose-dependent): decreased
cell viability after TSZ (HeLa cells; HeLa with ectopic RIP3, TSZ 24 h, MTT, dose-dependent): gradually increased
TSZ-induced RIP3 phosphorylation and MLKL phosphorylation (HeLa cells; HeLa with ectopic RIP3, pretreated 2 h, TSZ 6 h): effectively blocked
RIP3 phosphorylation, pre-treatment and post-treatment (RIP3 [2]; HT-29, 5 μM, pretreated 1 h or applied 1 or 2 h after induction): completely inhibited
MLKL phosphorylation, post-treatment after TSZ (RIP3 [2]; HT-29, post-treatment until approximately 5 h after TSZ): partially blocked
RIP3 phosphorylation, pre-treatment and post-treatment, low concentrations (RIP3 [2]; HT-29, pretreated 1 h or applied 1 or 2 h after induction, low concentrations): partial inhibitory effect
effect on TNF-induced necroptosis signaling (phosphorylation of RIP3 and MLKL) (RIP3 [2]; HT-29, pretreated 2 h, TSZ 6 h): complete inhibitory effect
